# Test results taken from US5646121A, “Pseudopeptides with antiviral activity” (Bayer Aktiengesellschaft, priority 1993, dated 1997).
# Where two headings read alike, the source gives them in different places.
# Legend:
# [1] = test system: human embryonic lung fibroblasts (HELF); experiment: Anti-cellular effect on HELF cells in the anti-HCMV screening test
# Procedure: (§1) The anti-HCMV effect was determined in a screening test system in 96-well microtitre plates, making use of human embryonic lung fibroblasts (HELF) cell cultures. The influence of the substances on the spread of the cytopathogenic effect was compared with that of the reference substance ganciclovir (Cymevene® sodium), a clinically approved anti-HCMV chemotherapeutic agent.
# (§2) The substances dissolved in DMSO (dimethyl sulphoxide) (at 50 mM concentration) are investigated on microtitre plates (96-well) at final concentrations of 1,000-0.00048 μM (micromolar) in double determinations (4 substances/plate). The conditions are such that both toxic and cytostatic effects of the substances are recorded. Once the appropriate substance dilutions (1:2) have been made on the microtitre plate, a suspension of 50-100 HCMV-infected HELF cells and 3×10^4 non-infected HELF cells in Eagle's MEM (minimal essential medium) containing 10% foetal calf serum is added to each well and the plates are then incubated at 37° C. in a CO2 incubator for a period of 6 days. […] After staining with neutral red and fixing with formalin/methanol, the plates are evaluated with the aid of a projection microscope (plaque viewer).
# HCMV (Davis) = experiment: Anti-HCMV screening test: inhibition of the cytopathogenic effect in HELF cell cultures; type: cell-based, human cytomegalovirus; details: for IC50: HCMV (Davis)-infected HELF cells, 6 days, concentration causing 50% inhibition of the CPE; for SI: selectivity index, defined by footnote 3 (drawing 26), HELF CIC50 versus HCMV IC50
# Procedure: as §1, §2
CIC50 (HELF) [1] [µM],IC50 (HCMV (Davis)) [µM],"CIC50 (HELF) ([1]; HELF cells, 6 days incubation, highest concentration which does not show any obvious anticellular effect) [µM]","IC50 (HCMV (Davis); Human betaherpesvirus 5, 144 h) [µM]",SMILES,SI (HCMV (Davis))
2.8,0.004,,,"Cc1ccc(S(=O)(=O)NC(=N)NCCC[C@H](NC(=O)OCc2ccccc2)C(=O)N[C@H](C(=O)NC(C=O)Cc2ccccc2)C(C)(C)C)cc1 (stereo partly drawn) [Example 50, (2R,S)-2-[Nα-(Benzyloxycarbonyl)-N^G -(4-methyl-phenylsulphonyl)-S-arginyl-S-(tert-butyl)glycinyl]amino-3-phenyl-propan-1-al]",700
,,125,2 to 4,"Nc1nc(O)c2ncn(COC(CO)CO)c2n1 [Cymevene.Na, ganciclovir]",32-64
